{"source": "patent US20160145300A1", "about": "“ARTIFICIAL DECAPEPTIDE, MEDICATION AND METHOD OF INDUCING BREEDING OF CRUSTACEANS” (National Pingtung University of Science and technology, priority 2014, published 2016)", "type_in_all_cases": "in vivo", "key": {"[1]": {"system": "male shrimps (Litopenaeus vannamei)", "assay": "maturity of spermatophore in male shrimps after administration of sustainable releasing dosage", "procedure": "After these, an effective amount of the artificially decapeptide is administrated to a crustacean, wherein, the effective amount of the artificially decapeptide may be 10 nanograms (ng) to 1000 ng, preferably 50 ng, per gram of body weight for each administrating. In one embodiment of the present embodiment a sustainable releasing dosage of the artificial decapeptide may be optionally prepared and administrated to the crustacean, so as to simplify the administration process. A method of preparing the sustainable releasing dosage of the artificially decapeptide, for example, may include formulating a great amount of the artificially decapeptide in an excipient, such as an excipient including oil. For example, 100 ng to 2000 ng of the artificially decapeptide may be formulated in 50 microliter (μl) to 200 μl of the excipient. With such arrangement, while the sustainable releasing dosage of the artificially decapeptide is administrated to the crustacean, the artificially decapeptide therein may be allowed to progressively release in the crustacean, thereby extending the inducing effect to the crustacean. […]\n(§1) In the present test, the artificial decapetide is firstly formulated in the aforementioned sustainable releasing dosage and then administrated to each Litopenaeus vannamei. After that, the spermatophore development of each male shrimp is determined and recorded every 4 days after the administration, through observing the external characteristics spermatophore. Also, the spermatophore weight, as well as the sperm count, is precisely measured 44 days after the administration. On the other hand, the ovarian development of each female shrimp is also determined and recorded weekly 2-4 months after the administration through observing the external characteristics and the maturity of ovarian. Furthermore, the spawning times of each female shrimp may be also recorded. […]"}, "[2]": {"system": "female shrimps (Litopenaeus vannamei)", "assay": "ovarian development of female shrimps after administration", "details": "recorded weekly 2-4 months after the administration, percentage relative to overall Litopenaeus vannamei in the test", "procedure": "(§2) After these, an effective amount of the artificially decapeptide is administrated to a crustacean, wherein, the effective amount of the artificially decapeptide may be 10 nanograms (ng) to 1000 ng, preferably 50 ng, per gram of body weight for each administrating. In one embodiment of the present embodiment a sustainable releasing dosage of the artificial decapeptide may be optionally prepared and administrated to the crustacean, so as to simplify the administration process. A method of preparing the sustainable releasing dosage of the artificially decapeptide, for example, may include formulating a great amount of the artificially decapeptide in an excipient, such as an excipient including oil. For example, 100 ng to 2000 ng of the artificially decapeptide may be formulated in 50 microliter (μl) to 200 μl of the excipient. With such arrangement, while the sustainable releasing dosage of the artificially decapeptide is administrated to the crustacean, the artificially decapeptide therein may be allowed to progressively release in the crustacean, thereby extending the inducing effect to the crustacean. Thus, in another embodiment of the present invention, the sustainable releasing dosage of the artificially decapeptide may be administrated to the crustacean every three to six months, preferably every four months, but not limited thereto. In other embodiment of the present invention, the artificially decapeptide may also be firstly formulated in saline, to forma solvent, and then, mixed with the excipient, wherein a volume ratio between the solvent and the excipient may be 1:1 to 1:3. Furthermore, in another embodiment, the excipient may include mineral oil, such as […] or incomplete adjuvant; vegetable oil, such as peanut oil, olive oil or coconut oil; fat adhesive, such as methylcellulose; or a composite of the aforementioned oil.\nIn the present test, the artificial decapeptide of the present invention is exemplified on numbers of Litopenaeus vannamei (Decapoda: Macrura). However, people in the art should easily realize the present invention is not limited thereto.\nIn the present test, the artificial decapetide is firstly formulated in the aforementioned sustainable releasing dosage and then administrated to each Litopenaeus vannamei. After that, the spermatophore development of each male shrimp is determined and recorded every 4 days after the administration, through observing the external characteristics spermatophore. Also, the spermatophore weight, as well as the sperm count, is precisely measured 44 days after the administration. On the other hand, the ovarian development of each female shrimp is also determined and recorded weekly 2-4 months after the administration through observing the external characteristics and the maturity of ovarian. Furthermore, the spawning times of each female shrimp may be also recorded. Please refer to TABLEs 1-3 and FIGS. 1-2, which illustrate gonadal promoting effects of the artificial decapeptide either on male or female shrimps (Litopenaeus vannamei). Wherein, TABLE 1 and FIGS. 1-2 show the maturity of spermatophore in male shrimps, including the development stage, spermatophore weight and sperm count per spermatophore, after the artificial decapeptide is administrated, in comparison with untreated male shrimps (control; marked as B in FIGS. 1-2), respectively."}, "[3]": {"system": "female shrimps (Litopenaeus vannamei)", "assay": "spawning times of female shrimps after administration", "procedure": "as §2\nIn the present test, the artificial decapeptide of the present invention is exemplified on numbers of Litopenaeus vannamei (Decapoda: Macrura). […]\nas §1"}, "[4]": {"details": "44 days after the administration"}}, "note": "Marks after values point to notes of the source that are not given here."}
{"substance": "artificial decapeptide: Synthetic 10-amino-acid peptide based on chicken GnRH-II (SEQ ID NO: 2); N-terminal Glu and C-terminal Gly unblocked (H-EHWSHGWYPG-OH; listed as Gallus gallus)", "values": [{"measurement": "sperm count per spermatophore", "setting": "[1]; [4]", "value": "68.5 ± 18.14 10^5/per spermatophore"}, {"measurement": "spermatophore weight", "setting": "[1]; [4]", "value": "0.0217 ± 0.007", "unit": "g"}, {"measurement": "spermatophore development stage reached", "setting": "[1]; in 44 days after the administration", "value": 2.5}, {"measurement": "percentage of female shrimps at ovarian development stage 0", "setting": "[2]; stage 0", "value": 0, "unit": "%^b"}, {"measurement": "percentage of female shrimps at ovarian development stage 0.5", "setting": "[2]; stage 0.5", "value": 20, "unit": "%^b"}, {"measurement": "percentage of female shrimps at ovarian development stage 1", "setting": "[2]; stage 1", "value": 0, "unit": "%^b"}, {"measurement": "percentage of female shrimps at ovarian development stage 1.5", "setting": "[2]; stage 1.5", "value": 0, "unit": "%^b"}, {"measurement": "percentage of female shrimps at ovarian development stage 2", "setting": "[2]; stage 2", "value": 0, "unit": "%^b"}, {"measurement": "percentage of female shrimps at ovarian development stage 2.5", "setting": "[2]; stage 2.5", "value": 0, "unit": "%^b"}, {"measurement": "percentage of female shrimps at ovarian development stage 3", "setting": "[2]; stage 3", "value": 0, "unit": "%^b"}, {"measurement": "percentage of female shrimps with spawning times 0", "setting": "[3]; 0 spawnings, 8-16 weeks after administrating, percentage relative to overall Litopenaeus vannamei in the test", "value": 20, "unit": "%^b"}, {"measurement": "percentage of female shrimps with spawning times 3", "setting": "[3]; 3 spawnings, 8-16 weeks after administrating, percentage relative to overall Litopenaeus vannamei in the test", "value": 0, "unit": "%^b"}, {"measurement": "effective period", "setting": "[3]; compared with current techniques (around one month)", "value": "between two and four"}, {"measurement": "number of spawnings induced", "setting": "[3]; compared with current techniques (fewer times of spawning)", "value": "four"}]}
